In patent US9187490B2, “Dimeric IAP inhibitors” (TetraLogic Pharmaceuticals Corporation, priority 2005, dated 2015):
Where two headings read alike, the source gives them in different places.

Assays:
XIAP-BIR3 = molecular target: T1, XIAP-BIR3 (Homo sapiens, UniProt P98170); assay: XIAP BIR-3 fluorescence polarization binding assay; details: read-out: KD Range
T1 construct: 40 nM of XIAP-BIR3 for 15 min at RT
Description: Following incubation, the polarization values (mP) were measured on a Victor^2V using a 485 nm excitation filter and a 520 nm emission filter. IC50 values were determined from the plot using nonlinear least-squares analysis using GraphPad Prism.

MDA MB-231 cells = assay: Apoptosis induction, Annexin V/Propidium Iodide staining; type: cell-based
Description: To show the ability of Smac mimetics to induce apoptosis, Annexin V-fluorescein isothiocyanate staining was performed. […] Cells were then pelleted and resuspended in assay buffer (supplied by manufacturer). Annexin V and propidium iodide were added to the cell preparations and incubated for 1 hour in the dark at room temperature. Following the incubation additional buffer (200 μl) was then added to each tube, and the samples were analyzed immediately by flow cytometry. In the presence of Smac mimetics apoptosis was strongly promoted, as assessed by annexin/PI staining and analyzed by flow cytometry. The amplification in the number of apoptotic cells (Annexin V positive/propidium iodide negative—lower right quadrant) by IAP antagonists as compared to control was dose dependent and due to the induction of apoptosis and not via increasing the proportion of necrotic cells.

OVCAR-3 cells = assay: Cytotoxicity synergy matrix (MacSynergy II) with paclitaxel, cisplatin, carboplatin; type: cell-based
Description: To further assess potential drug-drug interactions a matrix of the permutations of two-fold serial dilutions of each drug and a Snac mimetic were tested as well as the activity of each compound alone using a program called MacSynergy II (Prichard, M. N., K. R. Aseltine, and C. Shipman, Jr. 1993. MacSynergy II. User's manual. Univ. of Michigan, Ann Arbor). The synergy with paclitaxel and the Smac peptidomimetic Entry 122 in OVCAR3 cells was tested. The highest amount of synergy detected is 10-20% which indicates greater cell death than would be expected by adding together the cytotoxicity of either compound alone.
Paclitaxel the dosage ranged from about 0.0 to about 500.0 nM. For Entry 122, the dosage range was about 125.0 to about 8000.0 nM. The total synergistic volume was about 170.
The synergy with cisplatin and the Smac peptidomimetics in OVCAR-3 cells was tested The highest amount of synergy is 40-50% more cell death than would be expected by adding together the cytotoxicity of each compound alone. […] For cisplatin the dosage range was about 0.0 to about 166,500.0 nM. For Entry 122, the dosage range was about 500.0 to about 32,000.0 nM. The total synergistic volume was about 434. Similar tests were performed with the combination of carboplatin and Smac mimetics. Synergy between a Smac peptidomimetic, Entry 122, and carboplatin.

[1] = Half life after single intravenous dose in rat; details: in vivo, single IV dose 1 mg/kg, FIG. 2, read-out: terminal elimination half life (converted)
Description: The IV dose for each Smac mimetic was 1 mg/kg.

[2] = 5 nM AbuRPF-K(5-Fam)-NH2, 40 nM XIAP-BIR3, 15 min RT, pH 7.5

T1 sequence (P98170 241-356 limits assumed): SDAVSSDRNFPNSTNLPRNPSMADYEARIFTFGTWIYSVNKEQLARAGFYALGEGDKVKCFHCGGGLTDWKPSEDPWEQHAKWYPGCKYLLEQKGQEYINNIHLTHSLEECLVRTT

CNC(C)C(=O)NC(C(=O)N1CCCC1Cc1c(-c2[nH]c3cc(F)ccc3c2CC2CCCN2C(=O)C(NC(=O)C(C)NC)C(C)O)[nH]c2cc(F)ccc12)C(C)O (stereo not drawn) [Entry 78]
Kd (XIAP-BIR3; Example 4 series): < 100 nM

CC[C@H](NC(=O)[C@H](C)NC)C(=O)N1CCC[C@H]1Cc1c(-c2[nH]c3cc(F)ccc3c2C[C@@H]2CCCN2C(=O)[C@H](CC)NC(=O)[C@H](C)NC)[nH]c2cc(F)ccc12 [Entry 79]
Kd (XIAP-BIR3; Example 4 series): < 100 nM

CNC(C)C(=O)NC(C(=O)N1CCCC1Cc1c(-c2[nH]c3ccc(F)cc3c2CC2CCCN2C(=O)C(NC(=O)C(C)NC)C(C)O)[nH]c2ccc(F)cc12)C(C)O (stereo not drawn) [Entry 80]
Kd (XIAP-BIR3; Example 4 series): < 100 nM

CC(C)[C@H](NC(=O)CN)C(=O)N1CCC[C@H]1Cc1c(-c2[nH]c3cc(F)ccc3c2C[C@@H]2CCCN2C(=O)[C@@H](NC(=O)CN)C(C)C)[nH]c2cc(F)ccc12 [Entry 81]
Kd (XIAP-BIR3; Example 4 series): 100 to 1000 nM

CCC(C)[C@H](NC(=O)[C@H](C)NC)C(=O)N1CCC[C@H]1Cc1c(-c2[nH]c3ccc(F)cc3c2C[C@@H]2CCCN2C(=O)[C@@H](NC(=O)[C@H](C)NC)C(C)CC)[nH]c2ccc(F)cc12 (stereo partly drawn) [Entry 82]
Kd (XIAP-BIR3; Example 4 series): < 100 nM

CN[C@@H](C)C(=O)N[C@H](C(=O)N1CCC[C@H]1Cc1c(-c2[nH]c3ccc(F)cc3c2C[C@@H]2CCCN2C(=O)[C@@H](NC(=O)[C@H](C)NC)C2CCCCC2)[nH]c2ccc(F)cc12)C1CCCCC1 [Entry 83]
Kd (XIAP-BIR3; Example 4 series): < 100 nM

CN[C@@H](C)C(=O)N[C@H](C(=O)N1CCC[C@H]1Cc1c(-c2[nH]c3cc(F)ccc3c2C[C@@H]2CCCN2C(=O)[C@@H](NC(=O)[C@H](C)NC)C(C)(C)C)[nH]c2cc(F)ccc12)C(C)(C)C [Entry 84]
Kd (XIAP-BIR3; Example 4 series): < 100 nM

CN[C@@H](C)C(=O)N[C@H](C(=O)N1CCC[C@H]1Cc1c(-c2[nH]c3cc(F)ccc3c2C[C@@H]2CCCN2C(=O)[C@@H](NC(=O)[C@H](C)NC)C2CCCCC2)[nH]c2cc(F)ccc12)C1CCCCC1 [Entry 85]
Kd (XIAP-BIR3; Example 4 series): < 100 nM

CNC(C)C(=O)NC(C(=O)N1CC(O)CC1Cc1c(-c2[nH]c3cc(F)ccc3c2CC2CC(O)CN2C(=O)C(NC(=O)C(C)NC)C(C)O)[nH]c2cc(F)ccc12)C(C)O (stereo not drawn) [Entry 86]
Kd (XIAP-BIR3; Example 4 series): < 100 nM

CN[C@@H](C)C(=O)N[C@H](C(=O)N1C[C@@H](O)C[C@H]1Cc1c(-c2[nH]c3cc(F)ccc3c2C[C@@H]2C[C@H](O)CN2C(=O)[C@@H](NC(=O)[C@H](C)NC)C(C)C)[nH]c2cc(F)ccc12)C(C)C [Entry 87]
Kd (XIAP-BIR3; Example 4 series): < 100 nM

CNC(C)C(=O)NC(C(=O)N1CC(O)CC1Cc1c(-c2[nH]c3cc(F)ccc3c2CC2CC(O)CN2C(=O)C(NC(=O)C(C)NC)C(C)OC)[nH]c2cc(F)ccc12)C(C)OC (stereo not drawn) [Entry 88]
Kd (XIAP-BIR3; Example 4 series): < 100 nM

CNC(C)C(=O)NC(C(=O)N1CC(O)CC1Cc1c(-c2[nH]c3cc(F)ccc3c2CC2CC(O)CN2C(=O)C(NC(=O)C(C)NC)C(C)OC(C)(C)C)[nH]c2cc(F)ccc12)C(C)OC(C)(C)C (stereo not drawn) [Entry 89]
Kd (XIAP-BIR3; Example 4 series): 100 to 1000 nM

CNC(C)C(=O)NC(C(=O)N1CC(O)CC1Cc1c(-c2[nH]c3cc(F)ccc3c2CC2CC(O)CN2C(=O)C(NC(=O)C(C)NC)C(C)O)[nH]c2cc(F)ccc12)C(C)O (stereo not drawn) [Entry 90]
Kd (XIAP-BIR3; Example 4 series): < 100 nM

CN[C@H](C)C(=O)N[C@H](C(=O)N1CCC[C@H]1Cc1c(-c2[nH]c3cc(F)ccc3c2C[C@@H]2CCCN2C(=O)[C@@H](NC(=O)[C@@H](C)NC)C(C)C)[nH]c2cc(F)ccc12)C(C)C [Entry 91]
Kd (XIAP-BIR3; Example 4 series): 100 to 1000 nM

CNC(C)C(=O)NC1CC=CCC(NC(=O)C(C)NC)C(=O)N2CCCC2Cc2c3n(c4cc(F)ccc24)CCn2c-3c(c3ccc(F)cc32)CC2CCCN2C1=O (stereo not drawn) [Entry 95]
Kd (XIAP-BIR3; [2]): < 100 nM

CN[C@@H](C)C(=O)NC1CCCC[C@H](NC(=O)[C@H](C)NC)C(=O)N2CCC[C@H]2Cc2c3n(c4ccc(F)cc24)CCn2c-3c(c3cc(F)ccc32)C[C@@H]2CCCN2C1=O (stereo partly drawn) [Entry 97]
Kd (XIAP-BIR3; [2]): < 100 nM

CN[C@@H](C)C(=O)N[C@H](C(=O)N1CCC[C@H]1Cc1c(-c2[nH]c3ccccc3c2C[C@@H]2CCCN2C(=O)[C@@H](NC(=O)[C@H](C)NC)[C@@H](C)O)[nH]c2ccccc12)[C@@H](C)O [Entry 105]
Kd (XIAP-BIR3; Example 7 series): < 100 nM

CN[C@@H](C)C(=O)N[C@H](C(=O)N1C[C@@H](O)C[C@H]1Cc1c(-c2[nH]c3cc(F)ccc3c2C[C@@H]2C[C@H](O)CN2C(=O)[C@@H](NC(=O)[C@H](C)NC)[C@H](C)OC(C)(C)C)[nH]c2cc(F)ccc12)[C@H](C)OC(C)(C)C [Entry 114]
Kd (XIAP-BIR3; Example 7 series): < 100 nM

CN[C@@H](C)C(=O)N[C@H](C(=O)N1CCC[C@H]1Cc1cn(CC#CC#CCn2cc(C[C@@H]3CCCN3C(=O)[C@@H](NC(=O)[C@H](C)NC)C(C)(C)C)c3ccccc32)c2ccccc12)C(C)(C)C [Entry 119]
Kd (XIAP-BIR3; [2]): < 100 nM

CN[C@@H](C)C(=O)N[C@H](C(=O)N1CCC[C@H]1Cc1cn(CC#CC#CCn2cc(C[C@@H]3CCCN3C(=O)[C@@H](NC(=O)[C@H](C)NC)C3CCCCC3)c3ccccc32)c2ccccc12)C1CCCCC1 [Entry 120]
Kd (XIAP-BIR3; [2]): < 100 nM

CN[C@@H](C)C(=O)N[C@H](C(=O)N1CCC[C@H]1Cc1cn(CC#CC#CCn2cc(C[C@@H]3CCCN3C(=O)[C@@H](NC(=O)[C@H](C)NC)C(C)C)c3ccccc32)c2ccccc12)C(C)C [Entry 121]
apoptosis induced, agent alone (MDA MB-231 cells; MDA MB-231, after 4 hours): failed to induce significant apoptosis | increase in apoptotic activity, combination of TRAIL with compound (MDA MB-231 cells; MDA MB-231, after 4 hours): 4 fold | apoptosis, compound alone (MDA MB-231 cells; MDA MB-231, without TRAIL): approximately 10 % of cell total | Kd (XIAP-BIR3; [2]): < 100 nM

CN[C@@H](C)C(=O)N[C@H](C(=O)N1CCC[C@H]1Cc1cn(CCOCCn2cc(C[C@@H]3CCCN3C(=O)[C@@H](NC(=O)[C@H](C)NC)C3CCCCC3)c3ccccc32)c2ccccc12)C1CCCCC1 [Entry 122]
total synergistic volume (OVCAR-3 cells; OVCAR3, paclitaxel 0.0-500.0 nM, compound 125.0-8000.0 nM): about 170 | highest amount of synergy detected (OVCAR-3 cells; OVCAR3, with paclitaxel): 10-20% | total synergistic volume (OVCAR-3 cells; OVCAR-3, cisplatin 0.0-166,500.0 nM, compound 500.0-32,000.0 nM): about 434 | synergy with carboplatin (OVCAR-3 cells; OVCAR-3, with carboplatin): Synergy | highest amount of synergy, more cell death than expected (OVCAR-3 cells; OVCAR-3, with cisplatin): 40-50% | half-life [1]: ≤ 6 h | Kd (XIAP-BIR3; Example 9 series): < 100 nM

CN[C@@H](C)C(=O)N[C@H](C(=O)N1CCC[C@H]1Cc1cn(CCOCCn2cc(C[C@@H]3CCCN3C(=O)[C@@H](NC(=O)[C@H](C)NC)C3CCCCC3)c3ccc(F)cc32)c2cc(F)ccc12)C1CCCCC1 [Entry 123]
half-life [1]: ≤ 6 h | Kd (XIAP-BIR3; Example 9 series): < 100 nM

CN[C@@H](C)C(=O)N[C@H](C(=O)N1CCC[C@H]1Cc1cn(CCOCCn2cc(C[C@@H]3CCCN3C(=O)[C@@H](NC(=O)[C@H](C)NC)[C@@H](C)O)c3ccc(F)cc32)c2cc(F)ccc12)[C@@H](C)O [Entry 124]
Kd (XIAP-BIR3; Example 9 series): < 100 nM

CC[C@H](NC)C(=O)N[C@H](C(=O)N1CCC[C@H]1Cc1cn(CCOCCn2cc(C[C@@H]3CCCN3C(=O)[C@@H](NC(=O)[C@H](CC)NC)[C@@H](C)O)c3cc(F)ccc32)c2ccc(F)cc12)[C@@H](C)O [Entry 125]
Kd (XIAP-BIR3; Example 9 series): 100 to 1000 nM

CN[C@@H](C)C(=O)N[C@H](C(=O)N1CCC[C@H]1Cc1cn(CCOCCn2cc(C[C@@H]3CCCN3C(=O)[C@@H](NC(=O)[C@H](C)NC)C3CCCCC3)c3cc(F)ccc32)c2ccc(F)cc12)C1CCCCC1 [Entry 126]
Kd (XIAP-BIR3; Example 9 series): < 100 nM

CN[C@@H](C)C(=O)N[C@H](C(=O)N1CCC[C@H]1Cc1c(C)n(CCOCCn2c(C)c(C[C@@H]3CCCN3C(=O)[C@@H](NC(=O)[C@H](C)NC)C3CCCCC3)c3cc(F)ccc32)c2ccc(F)cc12)C1CCCCC1 [Entry 127]
Kd (XIAP-BIR3; Example 9 series): < 100 nM

CN[C@@H](C)C(=O)N[C@H](C(=O)N1CCC[C@H]1Cc1cn(CCOCCn2cc(C[C@@H]3CCCN3C(=O)[C@@H](NC(=O)[C@H](C)N)C3CCCCC3)c3ccccc32)c2ccccc12)C1CCCCC1 [Entry 143]
Kd (XIAP-BIR3; Example 9 series): < 100 nM

B1: TRAIL: tumor necrosis factor-related apoptosis-inducing ligand (TRAIL) (protein, UniProt P50591 1-281, looked up)
Tumor necrosis factor ligand …: MAMMEVQGGPSLGQTCVLIVIFTVLLQSLCVAVTYVYFTNELKQMQDKYSKSGIACFLKEDDSYWDPNDEESMNSPCWQVKWQLRQLVRKMILRTSEETISTVQEKQQNISPLVRERGPQRVAAHITGTRGRSNTLSSPNSKNEKALGRKINSWESSRSGHSFLSNLHLRNGELVIHEKGFYYIYSQTYFRFQEEIKENTKNDKQMVQYIYKYTSYPDPILLMKSARNSCWSKDAEYGLYSIYQGGIFELKENDRIFVSVTNEHLIDMDHEASFFGAFLVG
apoptosis induced, agent alone (MDA MB-231 cells; MDA MB-231, after 4 hours): little, if any
